The values below come from ChEMBL document CHEMBL1201862, “PubChem BioAssay data set” (2004).

Some test systems named below: T47D; NCI-H522; U-251; HOP-62; TK-10; IGROV-1; Hs-578T; UACC-257; SF-295; CAKI-1; NCI-H23; HCC 2998; MDA-MB-435; HL-60; HOP-92; OVCAR-4; OVCAR-5; SK-MEL-28; HCT-15; UO-31.
What all share (experiment): DTP human tumour cell line panel, 48 h

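All cell lines were grown in 96-well plates and treated with compound for 48 hours. GI50 marks 50% less growth.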 Active and inactive are the calls of the source. Cut-off read from the data, not from the text of the source: active = GI50 up to about 1.1 µM and inactive = higher.

Broadly, the GI50 is the concentration at which growth is held to half of that of the control. Take `Cc1cc2oc(C)c(S(=O)(=O)NC(=O)Nc3ccc(Cl)cc3)c(=O)c2c(=O)o1`: the GI50 in the experiment with T47D, with NCI-H522, with U-251, in the experiment on HOP-62, with TK-10 and in the experiment with IGROV-1 was > 100 µM (inactive) each time. Besides, the GI50 in the experiment with Hs-578T, with UACC-257, with SF-295, in the experiment with CAKI-1, in the experiment on NCI-H23 and with HCC 2998 was > 100 µM (inactive) in each case. Also, the GI50 in the experiment on MDA-MB-435, with HL-60, with HOP-92, in the experiment with OVCAR-4, in the experiment with OVCAR-5 and with SK-MEL-28 was > 100 µM (inactive) throughout. For the same molecule, the GI50 is 23 µM with HCT-15 and > 100 µM (inactive) with UO-31.
With `O=P1(N(CCCl)CCCl)NCCCO1` (stereo not given) [CYCLOPHOSPHAMIDE ANHYDROUS], the GI50 is > 88.7 µM (inactive) in the experiment with T47D; > 250 µM (inactive) in the experiment with NCI-H522; > 250 µM (inactive) in the experiment on U-251; > 247 µM (inactive) in the experiment on HOP-62; > 250 µM (inactive) in the experiment on TK-10; > 216 µM (inactive) with IGROV-1. In addition, the GI50 was > 250 µM (inactive) with Hs-578T; 211 µM (inactive) in the experiment on UACC-257; 169 µM (inactive) in the experiment on SF-295; > 192 µM (inactive) in the experiment with CAKI-1; > 235 µM (inactive) in the experiment on NCI-H23; 193 µM (inactive) with HCC 2998. For the same molecule, the GI50 in the experiment on MDA-MB-435 is > 250 µM (inactive); with HL-60, 183 µM (inactive); in the experiment on HOP-92, > 246 µM (inactive); in the experiment with OVCAR-4, > 250 µM (inactive); in the experiment on OVCAR-5, > 239 µM (inactive); with SK-MEL-28, > 250 µM (inactive). Moreover, the GI50 is more than 250 µM with HCT-15 and > 250 µM (inactive) in the experiment on UO-31.
Turning to `Oc1c(Cl)c(Cl)c(Cl)c(Cl)c1Cl` [PENTACHLOROPHENOL], the GI50 in the experiment with T47D is 20 µM (inactive); in the experiment with NCI-H522, 24 µM (inactive); in the experiment on U-251, 16.1 µM (inactive); in the experiment with HOP-62, 25.4 µM (inactive); in the experiment on TK-10, > 100 µM (inactive); in the experiment with IGROV-1, 18.8 µM (inactive). Further, the GI50 in the experiment with Hs-578T is 35.2 µM (inactive); in the experiment with UACC-257, > 100 µM (inactive); with SF-295, 17.2 µM (inactive); with CAKI-1, 18.3 µM (inactive); in the experiment with NCI-H23, 21.8 µM (inactive); in the experiment with HCC 2998, > 100 µM (inactive). In addition, the GI50 is 20.7 µM (inactive) in the experiment on MDA-MB-435; 17.5 µM (inactive) in the experiment with HL-60; 18.6 µM (inactive) in the experiment on HOP-92; 21.8 µM (inactive) with OVCAR-4; 18.4 µM (inactive) in the experiment on OVCAR-5; 24 µM (inactive) with SK-MEL-28. Also, the concentration for 50% growth inhibition (GI50) in the experiment with HCT-15 was 19.5 µM; with UO-31, 17 µM (inactive).
